# Measurements published in patent US10709690B2, “Combination therapy with nitrated lipids and inhibitors of the renin-angiotensin-aldosterone system” (THE UNIVERSITY OF UTAH RESEARCH FOUNDATION, priority 2011, dated 2020).
# Tests used:
# Assay type in all cases: in vivo
# [1] = tested on: db/db mice; experiment: Urinary albumin in db/db mice, 12-day treatment; settings: 12-day study, OA-NO2 10 mg/kg/d via osmotic mini-pump, losartan via diet; for changes of urinary albumin relative to the vehicle group: + increase, − decrease in albuminuria
# Experimental: FIG. 1 is a bar graph comparing the amounts of urinary albumin in db/db mice before and after a 12 day (12-d) administration of vehicle, losartan, nitrooleic acid (OA-NO2), or losartan+OA-NO2. Lean mice (non-diabetic) with vehicle treatment were used as controls. losartan was administered via diet, while OA-NO2 and vehicle were each infused via osmotic mini-pump. Lean: n=5; vehicle: n=10; losartan: n=8; OA-NO2: n=9; losartan+OA-NO2: n=10. Data are mean±SE. Male 3-4-month-old db/db mice were from Jackson Laboratories (Bar Harbor, Me.). All animals were housed in an air-conditioned room with a 12-hour light/dark cycle. All procedures and protocols were in accordance with guidelines set by the Laboratory Animal Care Committee at the University of Utah. 9-Nitrooleic acid and 10-nitrooleic acid are two regioisomers of nitrooleic acid (OA-NO2), which are formed by nitration of oleic acid in approximately equal proportions ([…] et al. Chemistry Letters pp. 1109-1112, 1982). The two compounds were purchased from Cayman Chemicals (Ann Arbor, Mich.) (9-nitrooleic acid: Cat #10008042; 10-nitrooleic acid: Cat #10008043) and used as an 1:1 mixture of the isomers. db/db mice were implanted with a 3-week osmotic mini-pump which delivered a vehicle or OA-NO2 at 10 mg/kg/d. Animals were fed with losartan, which is an AT1 blocker. 24-h urine samples were collected before and after the treatment. […] The plus symbol (+) means an increase and the minus symbol (-) indicates a decrease in albuminuria.
# [2] = tested on: db/db mice; experiment: Urinary TBARS in db/db mice, 12-day treatment; settings: OA-NO2 10 mg/kg/d via osmotic mini-pump, losartan via diet; for effect on urinary TBARS (in words): 12 days; for changes of urinary TBARS relative to the vehicle group: after 12 days
# Experimental: (§1) FIG. 2 is a bar graph comparing the amounts of urinary thiobarbituric acid reactive substances (TBARS) in db/db mice before and after 12-d infusion with vehicle, losartan, nitrooleic acid (OA-NO2), or losartan+OA-NO2. Lean mice (non-diabetic) with vehicle treatment were used as controls. Losartan was administered via diet, while vehicle and OA-NO2 were each infused via osmotic mini-pump. Lean: n=5; vehicle: n=10; losartan: n=8; OA-NO2: n=9; losartan+OA-NO2: n=10. Data are mean±SE. Male 3-4-month-old db/db mice were from Jackson Laboratories (Bar Harbor, Me.). All animals were housed in an air-conditioned room with a 12-hour light/dark cycle. All procedures and protocols were in accordance with guidelines set by the Laboratory Animal Care Committee at the University of Utah. 9-Nitrooleic acid and 10-nitrooleic acid are two regioisomers of nitrooleic acid (OA-NO2), which are formed by nitration of oleic acid in approximately equal proportions ([…] et al. Chemistry Letters pp. 1109-1112, 1982). The two compounds were purchased from Cayman Chemicals (Ann Arbor, Mich.) (9-nitrooleic acid: Cat #10008042; 10-nitrooleic acid: Cat #10008043) and used as an 1:1 mixture of the isomers. db/db mice were implanted with a 3-week osmotic mini-pump which delivered a vehicle or OA-NO2 at 10 mg/kg/d. Animals were fed with losartan, which is an AT1 blocker. 24-h urine samples were collected before and after the treatment.
# [3] = tested on: db/db mice; experiment: Renal TBARS in db/db mice, 12-day treatment; settings: 12 days, OA-NO2 10 mg/kg/d via osmotic mini-pump, losartan via diet
# Excerpt: as §1, with “Lean” for “FIG. 2 is a bar graph comparing the amounts of urinary thiobarbituric acid reactive substances (TBARS) in db/db mice before and after 12-d infusion with vehicle, losartan, nitrooleic acid (OA-NO2), or losartan+OA-NO2. Lean”, “Losartan was administered via diet, while vehicle and OA-NO2 were each infused via osmotic mini-pump.” left out
# [4] = tested on: renal COX-2 protein; experiment: Renal COX-2 protein expression in db/db mice by immunoblotting; settings: 12 days; for changes of renal COX-2 protein expression relative to the vehicle group: OA-NO2 10 mg/kg/d via osmotic mini-pump, losartan via diet
# Experimental: Lean mice (non-diabetic) with vehicle treatment were used as controls. Renal COX-2 protein was analyzed by using immunoblotting.
# Male 3-4-month-old db/db mice were from Jackson Laboratories (Bar Harbor, Me.). All animals were housed in an air-conditioned room with a 12-hour light/dark cycle. All procedures and protocols were in accordance with guidelines set by the Laboratory Animal Care Committee at the University of Utah.
# 9-Nitrooleic acid and 10-nitrooleic acid are two regioisomers of nitrooleic acid (OA-NO2), which are formed by nitration of oleic acid in approximately equal proportions (Hayama et al. Chemistry Letters pp. 1109-1112, 1982). The two compounds were purchased from Cayman Chemicals (Ann Arbor, Mich.) (9-nitrooleic acid: Cat #10008042; 10-nitrooleic acid: Cat #10008043) and used as an 1:1 mixture of the isomers.
# db/db mice were implanted with a 3-week osmotic mini-pump which delivered a vehicle or OA-NO2 at 10 mg/kg/d. Animals were fed with losartan, which is an AT1 blocker. 24-h urine samples were collected before and after the treatment.
# Renal COX-2 expression in db/db mice treated as above was examined by immunoblotting.
# [5] = tested on: renal heme oxygenase-1 (HO-1) protein; experiment: Renal heme oxygenase-1 protein expression in db/db mice by immunoblotting; settings: 12 days; for changes of renal HO-1 protein expression relative to the vehicle group: OA-NO2 10 mg/kg/d via osmotic mini-pump, losartan via diet
# Experimental: as §1, with “Lean” for “FIG. 2 is a bar graph comparing the amounts of urinary thiobarbituric acid reactive substances (TBARS) in db/db mice before and after 12-d infusion with vehicle, losartan, nitrooleic acid (OA-NO2), or losartan+OA-NO2. Lean”, “Renal HO-1 protein” for “Losartan”, “analyzed by using immunoblotting. […]” for “administered via diet, while vehicle and OA-NO2 were each infused via osmotic mini-pump. Lean: n=5; vehicle: n=10; losartan: n=8; OA-NO2: n=9; losartan+OA-NO2: n=10. Data are mean±SE.”, “treatment. Renal HO-1 expression was examined using immunoblotting.” for “treatment.”
Compound,effect on urinary albumin excretion (in words) [1],changes of urinary albumin relative to the vehicle group [1],effect on urinary TBARS (in words) [2],changes of urinary TBARS relative to the vehicle group [2],effect on renal TBARS content (in words) [3],effect on renal COX-2 expression (in words) [4],changes of renal COX-2 protein expression relative to the vehicle group [4] [%],effect on renal HO-1 expression (in words) [5],changes of renal HO-1 protein expression relative to the vehicle group [5]
CCCCc1nc(Cl)c(CO)n1Cc1ccc(-c2ccccc2-c2nn[nH]n2)cc1 [losartan],Neither losartan or OA-NO2 alone exhibited a statistically significant effect,+7%,without an effect,+33.4%,trend of reduction but none of these changes reached statistical significance,modest effect,−5.3,elevated,+97.6%
nitrooleic acid [OA-NO2],Neither losartan or OA-NO2 alone exhibited a statistically significant effect,−13%,without an effect,+16.5%,trend of reduction but none of these changes reached statistical significance,modest effect,−14.8,elevated,+48.8%
